Assay results taken from patent US20160160213A1, “METHODS OF TREATING CANCER AND PREVENTING CANCER DRUG RESISTANCE” (Genentech, Inc., priority 2013, published 2016).
Entries after “also recorded” stand apart in the source; their conditions may differ.

How the values were obtained:
H3K27me3 in PC9 DTPs = experiment: Histone H3K27me3 Western blot in PC9 DTPs treated with erlotinib; type: cell-based, human; conditions: GSK126 0.1, 0.5, 2.5 μM, EPZ-6438 0.05, 0.1, 0.5, 1, 1.5 μM, erlotinib 1 μM
Experimental: FIG. 20A, FIG. 20B, FIG. 20C and FIG. 20D | EZH2 inhibitors (GSK126) disrupt the drug-tolerant state. (A) Increase in histone H3K27me^3 in PC9 DTPs treated with erlotinib is inhibited by EZH2 small molecule inhibitor (GSK126) at 0.1, 0.5, and 2.5 μM as shown by Western blot. (B) nuc-red PC9 cells were treated with DMSO/erlotinib or GSK126/erlotinib at 0.1, 0.5, or 2.5 μM (dark grey bar) or without erlotinib (DMSO/Media or GSK126/Media) (light grey bar) and analyzed IncuCyte™ at day 9 and 3, respectively. (C) nuc-red PC9 cells were treated with DMSO/erlotinib or GSK126/erlotinib at 2.5 μM for 9 days and imaged. (D) nuc-red PC9 cells were treated with DMSO/erlotinib or GSK126/erlotinib at 2.5 μM for 30 days and stained with Giemsa. Erlotinib concentration 1 μM for FIG. 20A, FIG. 20B, FIG. 20C and FIG. 20D.
(D) nuc-red PC9 cells were treated with DMSO/erlotinib or […] at 0.05, 0.1, or 1.0 μM) for 30 days and stained with Giemsa. Erlotinib concentration 1 μM for FIG. 22A, FIG. 22B, FIG. 22C and FIG. 22D.
(§1) Cell lysates were prepared in Laemmli sample buffer and analyzed by immunoblotting as described previously. Cell lysates were analyzed using commercial antibodies against modifications on H3 (Active Motif and Cell Signaling Technologies).

H3K27me3 in EVSAT DTPs = experiment: Histone H3K27me3 Western blot in EVSAT DTPs treated with GDC-0908; type: cell-based; conditions: GSK126 0.1, 0.5, 2.5 μM, EPZ-6438 0.05, 0.1, 0.5 μM, GDC-0908 2 μM
Experimental: GDC-0908 concentration 2 μM for FIG. 21A and FIG. 21B.
as §1

PC9 DTP [1] = experiment: EZH2 inhibitors on PC9 DTP cell growth with erlotinib (IncuCyte, Giemsa); type: cell-based, human; conditions: erlotinib 1 μM; GSK126 0.1-2.5 μM; EPZ-6438 0.05-1.5 μM; day 9 and 30 days
Experimental: (A) Effect of siRNA knockdown of EZH2 on PC9 parental (light grey bars: media conditions) or DTP (dark grey: erlotinib condition) cell number using 8 different specific siRNAs (Dharmacon siGenome (×4) and On-Target Plus (OTP)(×4)) per gene. […] (B) Effect of GSK126 was tested at a concentration 1 μM.

EVSAT DTP = experiment: EZH2 inhibitors on EVSAT DTP cell growth with PI3K inhibitor (IncuCyte); type: cell-based; conditions: GDC-0908 2 μM; GSK126 0.1, 0.5, 2.5 μM; EPZ-6438 0.05, 0.1, 0.5 μM
PC9 DTP [2] = experiment: HDAC biased inhibitors on PC9 DTP with erlotinib, 30 days; type: cell-based, human; conditions: G946 50 nM, G877 5 μM, erlotinib 1 μM
Text: FIG. 17A, FIG. 17B and FIG. 17C | HDAC (1), 2 and 3 are involved in the establishment of drug tolerance. siRNA against HDAC2 and 3 as well as inhibitors that are HDAC1/2 or 3 biased disrupt the drug-tolerant state. (A-B) Effect of siRNA knockdown of essential components of HDAC2 and HDAC3 on PC9 parental (light grey bars: media conditions) or DTP (dark grey: erlotinib condition) cell number using 4 different specific siRNAs per gene. Data are presented along with the data for the non-targeting (NTC) and siTOX controls in similar treatment conditions. (C) Effect of (C1) G946, HDAC1/2 biased inhibitor, and (C2) G877, HDAC3 biased inhibitor. G946 and G877 were tested at concentrations 50 nM and 5 μM, respectively. PC9 cells were treated with (DTP) (DMSO/erlotinib or HDAC inhibitor/erlotinib) (C1 and C2) for 30 days or without erlotinib (parental) (DMSO/Media or HDAC inhibitor/Media) (data not shown). Erlotinib concentration 1 μM.
To further investigate the role of HDACs in the establishment of drug tolerance, siRNA against HDAC2 and 3 as well as inhibitors that are HDAC1/2 or 3 biased were tested for their ability to disrupt the drug-tolerant state.

EZH2 = EZH2 (Homo sapiens, UniProt Q15910); conditions: read-out: EZH2 Ki^app; cited from earlier work
Sequence of EZH2 (Q15910 whole entry): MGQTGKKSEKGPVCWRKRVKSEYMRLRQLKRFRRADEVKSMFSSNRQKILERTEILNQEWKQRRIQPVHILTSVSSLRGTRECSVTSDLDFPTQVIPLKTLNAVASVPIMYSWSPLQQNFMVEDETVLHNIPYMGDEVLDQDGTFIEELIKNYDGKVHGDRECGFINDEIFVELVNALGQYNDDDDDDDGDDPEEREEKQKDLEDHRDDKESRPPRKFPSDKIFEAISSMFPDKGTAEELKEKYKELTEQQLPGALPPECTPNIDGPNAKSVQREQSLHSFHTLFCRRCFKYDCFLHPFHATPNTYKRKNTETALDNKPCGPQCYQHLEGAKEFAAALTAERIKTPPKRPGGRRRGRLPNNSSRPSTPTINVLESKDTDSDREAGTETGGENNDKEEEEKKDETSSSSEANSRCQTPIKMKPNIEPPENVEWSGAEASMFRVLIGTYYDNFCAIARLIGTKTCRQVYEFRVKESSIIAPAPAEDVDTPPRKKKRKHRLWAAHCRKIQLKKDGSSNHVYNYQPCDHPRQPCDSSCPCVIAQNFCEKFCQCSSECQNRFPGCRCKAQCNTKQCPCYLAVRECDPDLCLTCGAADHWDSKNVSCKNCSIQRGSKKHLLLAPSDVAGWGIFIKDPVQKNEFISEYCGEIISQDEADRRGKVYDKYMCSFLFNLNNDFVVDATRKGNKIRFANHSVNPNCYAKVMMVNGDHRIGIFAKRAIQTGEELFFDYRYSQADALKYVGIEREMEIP
Sequence of EZH2 (O75530 whole entry partner): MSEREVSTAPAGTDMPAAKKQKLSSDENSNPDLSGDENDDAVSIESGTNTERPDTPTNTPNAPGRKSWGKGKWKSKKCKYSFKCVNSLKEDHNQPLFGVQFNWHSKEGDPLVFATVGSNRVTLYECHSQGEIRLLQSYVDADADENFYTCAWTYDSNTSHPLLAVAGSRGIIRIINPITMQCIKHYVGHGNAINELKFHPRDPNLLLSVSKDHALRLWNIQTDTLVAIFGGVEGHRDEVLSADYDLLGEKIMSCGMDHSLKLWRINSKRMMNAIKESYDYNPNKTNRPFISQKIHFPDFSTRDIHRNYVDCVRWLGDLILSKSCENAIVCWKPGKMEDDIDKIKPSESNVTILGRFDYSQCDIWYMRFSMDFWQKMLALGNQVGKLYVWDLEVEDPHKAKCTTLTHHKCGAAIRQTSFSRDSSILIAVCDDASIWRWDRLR
Sequence of EZH2 (Q15022 whole entry partner): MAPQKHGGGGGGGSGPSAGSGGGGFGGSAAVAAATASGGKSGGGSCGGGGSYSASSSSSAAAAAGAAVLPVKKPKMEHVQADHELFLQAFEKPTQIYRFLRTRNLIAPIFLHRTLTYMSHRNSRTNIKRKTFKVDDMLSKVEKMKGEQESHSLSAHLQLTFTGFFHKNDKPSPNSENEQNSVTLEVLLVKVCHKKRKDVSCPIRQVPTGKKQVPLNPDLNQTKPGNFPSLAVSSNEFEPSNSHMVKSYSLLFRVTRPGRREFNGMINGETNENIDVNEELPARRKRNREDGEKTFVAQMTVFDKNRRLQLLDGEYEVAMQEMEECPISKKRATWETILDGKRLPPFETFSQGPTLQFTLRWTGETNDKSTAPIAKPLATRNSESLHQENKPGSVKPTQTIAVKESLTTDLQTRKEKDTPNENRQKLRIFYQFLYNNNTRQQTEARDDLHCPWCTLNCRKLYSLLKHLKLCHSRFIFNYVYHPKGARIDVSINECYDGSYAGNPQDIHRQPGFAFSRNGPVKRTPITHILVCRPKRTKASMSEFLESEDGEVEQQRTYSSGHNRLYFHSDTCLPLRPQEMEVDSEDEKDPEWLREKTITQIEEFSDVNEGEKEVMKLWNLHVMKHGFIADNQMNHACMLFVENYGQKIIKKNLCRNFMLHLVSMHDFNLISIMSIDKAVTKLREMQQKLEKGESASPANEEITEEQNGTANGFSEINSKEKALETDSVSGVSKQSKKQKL
Sequence of EZH2 (Q09028 whole entry partner): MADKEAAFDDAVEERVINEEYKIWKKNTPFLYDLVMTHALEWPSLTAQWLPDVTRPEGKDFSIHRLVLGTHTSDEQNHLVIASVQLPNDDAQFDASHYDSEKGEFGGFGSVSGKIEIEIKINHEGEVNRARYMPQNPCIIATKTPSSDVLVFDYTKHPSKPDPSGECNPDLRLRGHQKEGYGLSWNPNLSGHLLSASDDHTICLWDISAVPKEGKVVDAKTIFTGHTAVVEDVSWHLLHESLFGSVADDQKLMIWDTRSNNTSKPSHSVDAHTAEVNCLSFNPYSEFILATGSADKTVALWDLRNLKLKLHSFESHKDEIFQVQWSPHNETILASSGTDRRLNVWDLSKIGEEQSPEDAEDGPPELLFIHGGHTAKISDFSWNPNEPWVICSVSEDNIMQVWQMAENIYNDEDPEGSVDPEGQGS

H3K27me3 = conditions: cited from earlier work
[3] = tested on: EZH2 levels and trimethylation of lysine 27 on histone H3; conditions: cultured human acute myeloid leukemia, dose-dependent manner (0.2-1 μM); cited from earlier work
PC9 cells = experiment: DZNep cell treatment, PC9 parental/DTP cell viability (CyQUANT Direct); type: cell-based, human
Experimental: DZNep was tested at concentrations ranging from 0.625 to 40 μM (A). PC9 cells were treated for 48 hours either with DZNep (DZNep/Media or DZNep/erlotinib) or DMSO control (DMSO/Media or DMSO/erlotinib) before treatment with (DTP) (DMSO/erlotinib or DZNep/erlotinib) or without erlotinib (parental)(DMSO/Media or DZNep/Media) for 72 hours. Cell number was determined after a 48-72 hours recovery phase in media alone. Effect of DZNep at 5 (B) and 0.625 μM (C) on PC9 parental (solid gray bars: media conditions) or DTP (diamond bars: erlotinib condition) cell number.
PC9 cells were seeded in black 96 well clear bottom plates (Coming, catalog #3603) at 1000 cells per well before to be treated with various concentration of 3-deazaneplanocin A (DZNep) from 40 down to 0.625 μM. After 48 hours of DZNep treatment the media was replaced with fresh media alone or in presence of 1 μM erlotinib. After 72 hours of incubation the media +/− erlotinib was then replaced with fresh media to enable recovery of the drug tolerant persisters (DTPs) that survived after the drug treatment. After 3 days recovery phase, final cell viability was measured using CyQUANT Direct cell proliferation assay (Molecular Probes) according to the manufacturer protocol. CyQUANT fluorescent signal was detected using a GE IN Cell Analyzer 2000 (4× objective) and quantified as number of cell per well using an image analysis algorithm developed using GE Developer Tollbox 1.9.1. Screening data were subsequently processed in Microsoft Excel. The entire Epi300 siRNA screen was run on each cell line twice in completely independent conditions.

PC9 xenografts = experiment: PC9 xenograft tumor study; type: in vivo; conditions: nude mice
Experimental: FIG. 18 | Effect of HDAC Inhibition using TSA (0.5 mg/kg) on erlotinib response in PC9 xenografts.
PC9 cells were cultured in growth media (RPMI 1640, 10% heat-inactivated fetal calf serum, 2 mM L-glutamine) to 80% confluency and then trypsinized, washed once with PBS, and resuspended in either Hank's Balanced Salt Solution (HBSS) or a 1:1 mixture of HBSS with matrigel [growth factor reduced; catalog #356231 (BD Biosciences, West Grove, Pa.)] to a final concentration of 5×10^7 cells/ml. Each xenograft tumor model was established using 5×10^6 cells (100 μL) inoculated subcutaneously (s.c.) in the rear right flank of immunocompromised mice. PC-9 and PC-9-GFP cells were implanted in HBSS with matrigel in nude (nu/nu) mice (Charles River Laboratories, Hollister, Calif.). When tumor volumes reach approximately 100-200 mm^3, mice were separated into groups of animals with similarly sized tumors, and treatment was initiated the day after grouping. Mice were dosed for 5 days a week (QD) oral gavage (PO) with erlotinib (50 mg/kg in 7.5% Captisol for first 4 doses then lowered to 35 mg/kg in 7.5% Captisol) and/or TSA (0.5 mg/kg) with appropriate vehicle control. […]

SKBR3 cells = experiment: TSA on SKBR3 drug tolerant cells (radiotherapy or lapatinib); type: cell-based; conditions: SKBR3, 2.5 Gy and 10 Gy, 25 nM TSA
Experimental: FIG. 16A, FIG. 16B and FIG. 16C | DTPs in a variety of models display increased sensitivity to HDAC inhibitors. (A) SKBR3 treated with 2.5 Gy in media alone or presence of 25 nM of the HDAC inhibitor TSA. (B) SKBR3 treated with 10 Gy in media alone or presence of 25 nM of the HDAC inhibitor TSA. (C) SKBR3 treated with 1 μM Lapatinib in media alone or presence of 25 nM of the HDAC inhibitor TSA.
The role of histone deacetylases was further test in additional models to elucidate their role in drug tolerance. The class I and II HDAC inhibitor TSA was tested in SKBR3 cells in combination with radiotherapy at 2.5 Gy and 10 Gy.

For `CCN(c1cc(-c2ccc(CN3CCOCC3)cc2)cc(C(=O)NCc2c(C)cc(C)[nH]c2=O)c1C)C1CCOCC1` [EPZ-6438, N-((4,6-dimethyl-2-oxo-1,2-dihydropyridin-3-yl)methyl)-5-(ethyl(tetrahydro-2H-pyran-4-yl)amino)-4-methyl-4′-(morpholinomethyl)-[1,1′-biphenyl]-3-carboxamide], the “histone H3K27me3 (H3K27 trimethylation) in PC9 DTPs treated with erlotinib” value (H3K27me3 in PC9 DTPs) was “effective in reducing H3K27 trimethylation; also recorded: inhibited” and the “histone H3K27me3 (H3K27 trimethylation) in EVSAT DTPs treated with GDC-0908” value (H3K27me3 in EVSAT DTPs) was “effective in reducing H3K27 trimethylation; also recorded: inhibited”.
For `CC[C@H](C)n1cc(C)c2c(C(=O)NCc3c(C)cc(C)[nH]c3=O)cc(-c3ccc(N4CCNCC4)nc3)cc21` [GSK126, (S)-1-(sec-butyl)-N-((4,6-dimethyl-2-oxo-1,2-dihydropyridin-3-yl)methyl)-3-methyl-6-(6-(piperazin-1-yl)pyridin-3-yl)-1H-indole-4-carboxamide], the “cell growth of PC9 DTP with erlotinib” value (PC9 DTP [1]) was “effective in reducing cell growth in a dose dependent manner”, the “cell growth of EVSAT DTP with PI3 kinase inhibitor” value (EVSAT DTP) was “effective in reducing cell growth in a dose dependent manner” and the “histone H3K27me3 (H3K27 trimethylation) in PC9 DTPs treated with erlotinib” value (H3K27me3 in PC9 DTPs) was “effective in reducing H3K27 trimethylation; also recorded: inhibited”. For the same compound, the “histone H3K27me3 (H3K27 trimethylation) in EVSAT DTPs treated with GDC-0908” value (H3K27me3 in EVSAT DTPs) was “effective in reducing H3K27 trimethylation; also recorded: inhibited”.
With `Cc1ccc(C(=O)NCCCCCC(=O)Nc2ccc(F)cc2N)cc1` [Compound G877] the “cell growth of PC9 DTP with erlotinib” value (PC9 DTP [2]) was “effective in reducing cell growth”.
In the case of `Cc1cc(C)c(CNC(=O)c2cc(-c3ccnc(N4CCN(C)CC4)c3)cc3c2cnn3C(C)C)c(=O)[nH]1` [Compound 5], the Ki (EZH2) is listed as 14 ± 5 nM and the IC50 (H3K27me3) is listed as 2000 nM.
For `CC(=O)Nc1ccc(C(=O)Nc2cc(-c3cccs3)ccc2N)cc1` [Compound G946], the “cell growth of PC9 DTP with erlotinib” value (PC9 DTP [2]) was “effective in reducing cell growth”.
In the case of `CCCc1cc(C)[nH]c(=O)c1CNC(=O)c1cc(-c2ccc(N3CCN(C)CC3)nc2)cc2c1cnn2C(C)C` [Compound 4], the Ki (EZH2) is given as 0.6 ± 0.05 nM and the IC50 (H3K27me3) is given as 79 ± 7 nM.
For `Nc1nccc2c1ncn2[C@@H]1C=C(CO)[C@@H](O)[C@H]1O` [DZNep, 3-deazaneplanocin A], the “EZH2 levels and trimethylation of lysine 27 on histone H3” value [3] is given as “deplete EZH2 levels and to inhibit trimethylation of lysine 27 on histone H3”, the “cell killing compared to erlotinib alone” value (PC9 cells; DZNep 0.625 uM with 1 μM erlotinib) is given as 75.8% and the “cell killing compared to erlotinib alone” value (PC9 cells; DZNep 5 uM with 1 μM erlotinib) is given as 87.5%. The “effect by itself on PC9 DTP cell viability” value (PC9 cells; DZNep 0.625 and 5 uM, without erlotinib) was “not effect”, the “cell viability in media alone” value (PC9 cells; DZNep 0.625 to 10 uM, media alone) was “minimum impact” and the “PC9 DTP cell viability in combination with erlotinib” value (PC9 cells; DZNep concentrations as low as 0.625 uM, 1 μM erlotinib) was “very significantly decrease”.
In the case of `CC(/C=C/C(=O)NO)=C\[C@@H](C)C(=O)c1ccc(N(C)C)cc1` [TSA, Trichostatin A], the “tumor growth, TSA alone” value (PC9 xenografts; TSA 0.5 mg/kg) is reported as “no effect”, the “tumor relapse, combination of erlotinib+TSA” value (PC9 xenografts; TSA 0.5 mg/kg with erlotinib 50 then 35 mg/kg PO) is reported as “substantial delay in tumor relapse” and the “effect on radiotherapy drug tolerant cells” value (SKBR3 cells) is reported as “significant effect and eliminated radiotherapy drug tolerant cells”.
For `Cc1cc(C)c(CNC(=O)c2cc(C3CC3)cc3c2cnn3C(C)C)c(=O)[nH]1` [Compound 2], the Ki (EZH2) is given as 74 ± 11 nM and the IC50 (H3K27me3) is given as 2510 nM.
For `CCCc1cc(C)[nH]c(=O)c1CNC(=O)c1cc(-c2ccnc(N3CCN(C)CC3)c2)cc2c1cnn2C(C)C` [Compound 6], the IC50 (H3K27me3) is given as 174 ± 84 nM.
